Reference: PubChem BioAssay AID1963858 (Molecular Pharmacology Branch, DTP, NCI, 2024)
pIC50: −log10 of the molar value.

Test system: HOP-62 multicell spheroids with HUVEC/MSC, viability
Experiment: Anticancer human tumor HOP-62 cell line growth inhibition [KRAS2];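 note: viability read after a week of compound exposure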;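 for viability, T/C: 100% = DMSO vehicle-treated spheroids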
Settings: for pIC50: curve of first compound; for viability, T/C: stronger effect = lower value
Description: Multicellular complex tumor spheroid response to RAS pathway inhibitors in combination with a targeted agents in patient-derived cell lines with oncogenic KRAS variants from multiple cancer types
A high-throughput screen of multi-cell type tumor spheroids was designed to identify active combinations of targeted small molecules and KRAS pathway inhibitors. Complex spheroids include a stromal component modeled by human endothelial cells (HUVEC) and fibroblasts modeled by human mesenchymal stem cells (MSCs). The concentration ranges selected for each drug and investigational agent were based upon clinically achievable concentrations if the clinical Cmax of the agent was known.
Compounds. The drugs and investigational agents: BI-3406 (NSC825286), BAY-293 (NSC824723), batoprotafib (TNO155; NSC825523), sotorasib (AMG 510; NSC818433), MRTX1257 (NSC819558), elimusertib (BAY 1895344; NSC800525), molibresib (GSK525762; NSC774829), temuterkib (LY3214996; NSC803410), venetoclax (NSC766270), alisertib (NSC759677), olaparib (NSC753686), talazoparib (NSC767125), erdafitinib (NSC781556), ipatasertib (NSC767898), cabozantinib (NSC761068), nintedanib (NSC756659), abemaciclib (NSC768073), docetaxel (NSC628503), trametinib (NSC758246), and sapanisertib (NSC764658) were obtained from the National Cancer Institute (NCI) Developmental Therapeutics Program Chemical Repository. The FDA-approved anticancer drug set is available from the Developmental Therapeutics Program. […] The stock solutions were prepared in dimethyl sulfoxide (DMSO, Sigma-Aldrich, St. Louis, MO, cat. D2650) at 800-fold the tested concentration and stored at -70 degrees C prior to their use. All drugs and investigational agents were tested over a range starting from a high concentration at or near the clinical Cmax and decreasing in half-log increments. If the clinical Cmax for an agent had not been determined, the highest concentration tested was 10 microM.
Cell Culture. All cells were maintained in an incubator at 37 degrees C and 5% CO2 with 95% humidity. The PDC lines were cultured according to standard operating procedures established by the NCI PDMR (https://pdmr.cancer.gov/sops/default.htm). Briefly, all PDCs were thawed and cultured in Matrigel-coated flasks prepared with a working solution of 1X Ham's F-12 nutrient mix, without supplementation (Invitrogen, Waltham, MA, cat. 11765054), 100 U/mL penicillin-streptomycin (Invitrogen, cat. 15140122), and 2.5% Matrigel (Corning Inc., Corning, NY, cat. 354248) for the first three passages. All PDCs were cultured in complete DMEM/F-12 media containing advanced DMEM/F-12 (Invitrogen, cat. 12634028), 4.9% defined fetal bovine serum, heat inactivated (HyClone Laboratories Inc., Logan, UT, cat. SH30070.03HI), 389 ng/mL hydrocortisone (Sigma-Aldrich, cat. H4001), 9.7 ng/mL human EGF recombinant protein (Invitrogen, cat. PHG0313), 23.4 microg/mL adenine (Sigma-Aldrich, cat. A2786), 97.3 U/mL penicillin-streptomycin (Invitrogen, cat. 15140122), 1.9 mM L-glutamine (Invitrogen, cat. 25030081), and 9.7 microM Y-27632 dihydrochloride (Tocris Bioscience, Bristol, United Kingdom, cat. 1254). The PDCs were cultured in complete DMEM/F12 media without 9.7 microM Y-27632 dihydrochloride for at least two passages prior to the screen. The established cell line HOP-62 was cultured in RPMI 1640 medium, HEPES (Invitrogen, cat. 22400105) with 10% defined fetal bovine serum (HyClone Laboratories Inc., cat. SH30070.03) and 2 mM L-glutamine (Invitrogen, cat. 25030081). The pooled donor HUVEC were cultured in endothelial cell growth medium 2 (PromoCell, Heidelberg, Germany, cat. C-22011) and the hMSC were cultured in mesenchymal stem cell growth medium 2 (PromoCell, cat. C-28009). For all experiments, HUVEC and hMSC were used at passages </=5, while the malignant cell lines were used at passages </=15. […]

[1] = second compound 0.1 µM, first compound 0.0316 µM
[2] = second compound 0.316 µM, first compound 0.0316 µM
[3] = second compound 1 µM, first compound 0.0316 µM
[4] = second compound 3.16 µM, first compound 0.0316 µM
[5] = second compound 10 µM, first compound 0.0316 µM
[6] = second compound 0.1 µM, first compound 0.1 µM
[7] = second compound 0.1 µM, first compound 0.316 µM
[8] = second compound 0.1 µM, first compound 1 µM
[9] = second compound 0.1 µM, first compound 3.16 µM
[10] = second compound 0.1 µM, first compound 10 µM
[11] = second compound 0.316 µM, first compound 0.1 µM
[12] = second compound 0.316 µM, first compound 0.316 µM
[13] = second compound 0.316 µM, first compound 1 µM
[14] = second compound 0.316 µM, first compound 3.16 µM
[15] = second compound 0.316 µM, first compound 10 µM
[16] = second compound 1 µM, first compound 0.1 µM
[17] = second compound 1 µM, first compound 0.316 µM
[18] = second compound 1 µM, first compound 1 µM
[19] = second compound 1 µM, first compound 3.16 µM
[20] = second compound 1 µM, first compound 10 µM
[21] = second compound 3.16 µM, first compound 0.1 µM
[22] = second compound 3.16 µM, first compound 0.316 µM
[23] = second compound 3.16 µM, first compound 1 µM
[24] = second compound 3.16 µM, first compound 3.16 µM
[25] = second compound 3.16 µM, first compound 10 µM
[26] = second compound 10 µM, first compound 0.1 µM
[27] = second compound 10 µM, first compound 0.316 µM
[28] = second compound 10 µM, first compound 1 µM
[29] = second compound 10 µM, first compound 3.16 µM
[30] = second compound 10 µM, first compound 10 µM

SMILES: CC(=O)Nc1cccc(-n2c(=O)n(C3CC3)c(=O)c3c(Nc4ccc(I)cc4F)n(C)c(=O)c(C)c32)c1 + C=CC(=O)N1CCN(c2nc(=O)n(-c3c(C)ccnc3C(C)C)c3nc(-c4c(O)cccc4F)c(F)cc23)C(C)C1
- pIC50 (second compound 0.1 µM): 9.11
- pIC50 (second compound 0.316 µM): 9.06
- pIC50 (second compound 1 µM): 9.04
- pIC50 (second compound 3.16 µM): 9.25
- pIC50 (second compound 10 µM): 9.91
- viability, T/C (second compound 0.1 µM, first compound 0.0001 µM): 78.5%
- viability, T/C (second compound 0.1 µM, first compound 0.000316 µM): 61.2%
- viability, T/C (second compound 0.1 µM, first compound 0.001 µM): 49.1%
- viability, T/C (second compound 0.1 µM, first compound 0.00316 µM): 29.7%
- viability, T/C (second compound 0.1 µM, first compound 0.01 µM): 18.9%
- viability, T/C [1]: 14.7%
- viability, T/C (second compound 0.316 µM, first compound 0.0001 µM): 61.6%
- viability, T/C (second compound 0.316 µM, first compound 0.000316 µM): 72.7%
- viability, T/C (second compound 0.316 µM, first compound 0.001 µM): 43.8%
- viability, T/C (second compound 0.316 µM, first compound 0.00316 µM): 30.2%
- viability, T/C (second compound 0.316 µM, first compound 0.01 µM): 19.2%
- viability, T/C [2]: 16.8%
- viability, T/C (second compound 1 µM, first compound 0.0001 µM): 73.8%
- viability, T/C (second compound 1 µM, first compound 0.000316 µM): 61.7%
- viability, T/C (second compound 1 µM, first compound 0.001 µM): 51%
- viability, T/C (second compound 1 µM, first compound 0.00316 µM): 32%
- viability, T/C (second compound 1 µM, first compound 0.01 µM): 22.6%
- viability, T/C [3]: 18.5%
- viability, T/C (second compound 3.16 µM, first compound 0.0001 µM): 77.2%
- viability, T/C (second compound 3.16 µM, first compound 0.000316 µM): 50.6%
- viability, T/C (second compound 3.16 µM, first compound 0.001 µM): 44.5%
- viability, T/C (second compound 3.16 µM, first compound 0.00316 µM): 39.4%
- viability, T/C (second compound 3.16 µM, first compound 0.01 µM): 26.2%
- viability, T/C [4]: 22.1%
- viability, T/C (second compound 10 µM, first compound 0.0001 µM): 53.8%
- viability, T/C (second compound 10 µM, first compound 0.000316 µM): 39%
- viability, T/C (second compound 10 µM, first compound 0.001 µM): 43%
- viability, T/C (second compound 10 µM, first compound 0.00316 µM): 34.8%
- viability, T/C (second compound 10 µM, first compound 0.01 µM): 26.8%
- viability, T/C [5]: 22.8%

SMILES: COc1cc(Nc2ncc3c(n2)-c2ccc(Cl)cc2C(c2c(F)cccc2OC)=NC3)ccc1C(=O)O + C=CC(=O)N1CCN(c2nc(=O)n(-c3c(C)ccnc3C(C)C)c3nc(-c4c(O)cccc4F)c(F)cc23)C(C)C1
- pIC50 (second compound 0.1 µM): > 7.50
- pIC50 (second compound 0.316 µM): > 7.50
- pIC50 (second compound 1 µM): > 7.50
- pIC50 (second compound 3.16 µM): > 7.50
- pIC50 (second compound 10 µM): > 7.50
- viability, T/C [1]: 35.3%
- viability, T/C [6]: 29.2%
- viability, T/C [7]: 23.2%
- viability, T/C [8]: 23.4%
- viability, T/C [9]: 23.3%
- viability, T/C [10]: 16.6%
- viability, T/C [2]: 42.6%
- viability, T/C [11]: 31.5%
- viability, T/C [12]: 31.8%
- viability, T/C [13]: 32.6%
- viability, T/C [14]: 21.8%
- viability, T/C [15]: 20%
- viability, T/C [3]: 27.6%
- viability, T/C [16]: 38.6%
- viability, T/C [17]: 35.4%
- viability, T/C [18]: 31.6%
- viability, T/C [19]: 27.7%
- viability, T/C [20]: 21.9%
- viability, T/C [4]: 37.6%
- viability, T/C [21]: 36.7%
- viability, T/C [22]: 34%
- viability, T/C [23]: 33.7%
- viability, T/C [24]: 28.7%
- viability, T/C [25]: 22%
- viability, T/C [5]: 39.2%
- viability, T/C [26]: 32.3%
- viability, T/C [27]: 31.9%
- viability, T/C [28]: 33%
- viability, T/C [29]: 33.4%
- viability, T/C [30]: 25.5%

SMILES: COc1cc2nccc(Oc3ccc(NC(=O)C4(C(=O)Nc5ccc(F)cc5)CC4)cc3)c2cc1OC + C=CC(=O)N1CCN(c2nc(=O)n(-c3c(C)ccnc3C(C)C)c3nc(-c4c(O)cccc4F)c(F)cc23)C(C)C1
- pIC50 (second compound 0.1 µM): 5.77
- pIC50 (second compound 0.316 µM): 5.84
- pIC50 (second compound 1 µM): 5.66
- pIC50 (second compound 3.16 µM): 5.83
- pIC50 (second compound 10 µM): > 7.50
- viability, T/C [1]: 50.1%
- viability, T/C [6]: 52.9%
- viability, T/C [7]: 53.9%
- viability, T/C [8]: 73.4%
- viability, T/C [9]: 41.3%
- viability, T/C [10]: 21.6%
- viability, T/C [2]: 54.2%
- viability, T/C [11]: 54.7%
- viability, T/C [12]: 57.3%
- viability, T/C [13]: 67.6%
- viability, T/C [14]: 28.2%
- viability, T/C [15]: 37.7%
- viability, T/C [3]: 52.9%
- viability, T/C [16]: 64.6%
- viability, T/C [17]: 63.4%
- viability, T/C [18]: 72.3%
- viability, T/C [19]: 44%
- viability, T/C [20]: 18.4%
- viability, T/C [4]: 55.1%
- viability, T/C [21]: 57.3%
- viability, T/C [22]: 63.8%
- viability, T/C [23]: 64.5%
- viability, T/C [24]: 29.6%
- viability, T/C [25]: 15.4%
- viability, T/C [5]: 33%
- viability, T/C [26]: 39.8%
- viability, T/C [27]: 36.7%
- viability, T/C [28]: 36%
- viability, T/C [29]: 26.6%
- viability, T/C [30]: 6.56%
